Results as given in patent publication US20200291018A1, “TAM KINASE INHIBITORS” (SYROS PHARMACEUTICALS, INC., priority 2017, published 2020).
pIC50: −log10 of the molar value. Where a name gives a salt, the structure may show the parent alone.

Legend:
MERTK = target: T1, MERTK (Homo sapiens, UniProt Q12866); test: TR-FRET kinase activity assay, MERTK; format: biochemical; conditions: for pIC50: TR-FRET activity assay, ATP at Km, 60 minutes, read-out: Mer IC50; for Mer/Flt3 ratio (FLT3 IC50/Mer IC50): ratio calculated as FLT3 IC50/Mer IC50
T1 sequence (Q12866 21-999): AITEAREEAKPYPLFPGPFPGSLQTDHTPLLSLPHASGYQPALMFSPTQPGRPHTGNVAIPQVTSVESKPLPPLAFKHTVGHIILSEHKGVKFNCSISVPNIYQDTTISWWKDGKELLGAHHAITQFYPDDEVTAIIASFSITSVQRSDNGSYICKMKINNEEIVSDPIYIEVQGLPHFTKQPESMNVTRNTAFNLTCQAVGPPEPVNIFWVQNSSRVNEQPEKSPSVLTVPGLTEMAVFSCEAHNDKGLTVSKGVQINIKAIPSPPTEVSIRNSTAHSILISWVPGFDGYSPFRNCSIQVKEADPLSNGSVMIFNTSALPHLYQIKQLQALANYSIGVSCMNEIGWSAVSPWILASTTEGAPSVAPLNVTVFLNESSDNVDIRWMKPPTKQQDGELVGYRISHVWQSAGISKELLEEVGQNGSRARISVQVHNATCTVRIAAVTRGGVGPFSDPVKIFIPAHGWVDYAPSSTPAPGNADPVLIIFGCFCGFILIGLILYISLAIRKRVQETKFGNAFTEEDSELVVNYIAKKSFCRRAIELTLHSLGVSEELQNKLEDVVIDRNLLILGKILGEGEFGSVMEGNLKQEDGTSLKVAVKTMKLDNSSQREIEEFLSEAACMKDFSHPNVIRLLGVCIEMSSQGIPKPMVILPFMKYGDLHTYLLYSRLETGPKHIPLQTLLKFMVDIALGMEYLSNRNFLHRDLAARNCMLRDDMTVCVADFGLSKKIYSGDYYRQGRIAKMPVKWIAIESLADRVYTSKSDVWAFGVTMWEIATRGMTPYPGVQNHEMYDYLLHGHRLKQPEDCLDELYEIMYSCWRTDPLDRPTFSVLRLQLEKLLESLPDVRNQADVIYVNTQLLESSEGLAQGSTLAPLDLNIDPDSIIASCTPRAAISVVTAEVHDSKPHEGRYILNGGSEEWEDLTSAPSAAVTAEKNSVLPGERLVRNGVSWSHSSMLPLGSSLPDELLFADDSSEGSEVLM
Protocol: (§1) IC50 values for compound inhibition of AXL, FLT3, MERTK and TYRO3 activity were determined using a TR-FRET activity assay. A peptide substrate with a fluorescent label is phosphorylated on a tyrosine by each enzyme, where the now phosphorylated product is bound by a Europium-labeled antibody specific to that phosphorylation site. The proximity between the antibody and the substrate gives a signal known as TR-FRET. As the enzyme is inhibited by compound, less phosphorylated peptide product is made, causing a decrease in overall signal.
(§2) Activity assays were performed in a 384-well, small volume, black microplates in an active enzyme volume of 10 uL and final developed volume of 20 uL. Final assay conditions are 50 mM HEPES pH 7.5, 10 mM MgCl2, 1 mM EGTA, 0.01% Brij 35 and 1 mM DTT, all at RT. Enzyme, substrate-labeled peptide and compound are mixed, and then the reaction is initiated with the addition of ATP at Km concentration for each enzyme. The reaction is allowed to run 60 minutes and then quenched with a 12.5 mM EDTA (ethylenediamine tetraacetic acid) solution. The plate is then developed with the addition of Europium-labeled antibody for a final volume of 20 uL and is then incubated for 30 minutes in darkness. Plates are read in a PHERASTAR® plate reader. Data are analyzed in GraphPad PRISM.

TYRO3 = target: T2, TYRO3 (Homo sapiens, UniProt Q06418); test: TR-FRET kinase activity assay, TYRO3; format: biochemical; conditions: ATP at Km, 60 minutes
T2 sequence (Q06418 41-890): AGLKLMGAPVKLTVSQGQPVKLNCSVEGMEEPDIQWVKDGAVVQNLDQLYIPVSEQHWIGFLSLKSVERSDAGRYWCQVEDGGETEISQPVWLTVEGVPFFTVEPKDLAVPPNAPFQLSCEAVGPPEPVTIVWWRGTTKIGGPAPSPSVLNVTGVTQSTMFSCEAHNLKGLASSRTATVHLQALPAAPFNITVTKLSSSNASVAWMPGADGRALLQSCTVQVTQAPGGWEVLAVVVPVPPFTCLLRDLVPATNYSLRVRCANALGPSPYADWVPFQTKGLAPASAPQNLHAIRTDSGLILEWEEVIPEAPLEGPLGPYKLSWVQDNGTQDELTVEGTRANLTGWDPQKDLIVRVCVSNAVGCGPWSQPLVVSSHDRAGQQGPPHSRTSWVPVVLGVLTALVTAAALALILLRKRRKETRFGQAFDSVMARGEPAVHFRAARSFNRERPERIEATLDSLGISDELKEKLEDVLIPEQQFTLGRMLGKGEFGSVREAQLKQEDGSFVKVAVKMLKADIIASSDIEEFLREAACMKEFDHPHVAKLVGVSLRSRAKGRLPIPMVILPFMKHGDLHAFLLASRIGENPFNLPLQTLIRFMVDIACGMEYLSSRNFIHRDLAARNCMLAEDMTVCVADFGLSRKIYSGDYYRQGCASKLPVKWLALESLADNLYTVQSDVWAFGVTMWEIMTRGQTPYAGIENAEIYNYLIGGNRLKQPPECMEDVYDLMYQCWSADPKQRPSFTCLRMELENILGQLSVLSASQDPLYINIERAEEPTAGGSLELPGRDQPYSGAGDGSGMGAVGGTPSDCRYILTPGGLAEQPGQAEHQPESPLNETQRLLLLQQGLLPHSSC
Protocol: as §1, §2

CCCCNc1cc2c(cn1)c(OC1CCNCC1)ncc2[C@H]1CC[C@H](O)CC1 [Compound 107]
pIC50 (MERTK): ≥ 7.00
Mer/Flt3 ratio (FLT3 IC50/Mer IC50) (MERTK): ++ (a ratio of between 10 and 100)
pIC50 (TYRO3): ≥ 7.00

CCCCC[C@H](C)Nc1ncc2c(=O)n(C3CCOCC3)cc([C@H]3CC[C@H](O)CC3)c2n1 [Compound 108]
pIC50 (MERTK): ≥ 7.00
Mer/Flt3 ratio (FLT3 IC50/Mer IC50) (MERTK): +++ (a ratio of >100)
pIC50 (TYRO3): ≥ 7.00

CCCCNc1cc2c(cn1)c(=O)n(C1CCNCC1)cc2[C@H]1CC[C@H](O)CC1 [Compound 109, 6-(butylamino)-4-((1r,4r)-4-hydroxycyclohexyl)-2-(piperidin-4-yl)-2,7-naphthyridin-1(2H)-one hydrochloride]
pIC50 (MERTK): ≥ 7.00
Mer/Flt3 ratio (FLT3 IC50/Mer IC50) (MERTK): ++ (a ratio of between 10 and 100)
pIC50 (TYRO3): ≥ 7.00

CC[C@@H](C)Nc1ncc2c(OC3CCN(C)CC3)ncc([C@H]3CC[C@H](O)CC3)c2n1 [Compound 195]
pIC50 (MERTK): ≥ 7.00
Mer/Flt3 ratio (FLT3 IC50/Mer IC50) (MERTK): +++ (a ratio of >100)
pIC50 (TYRO3): < 5.00

CCC[C@@H](C)Nc1ncc2c(OC3CCNCC3)ncc([C@H]3CC[C@H](O)CC3)c2n1 [Compound 196]
pIC50 (MERTK): ≥ 7.00
Mer/Flt3 ratio (FLT3 IC50/Mer IC50) (MERTK): +++ (a ratio of >100)
pIC50 (TYRO3): ≥ 7.00

Cc1cccc(Nc2ncc3c(OC4CCNCC4)ncc([C@H]4CC[C@H](O)CC4)c3n2)c1 [Compound 197]
pIC50 (MERTK): ≥ 7.00
Mer/Flt3 ratio (FLT3 IC50/Mer IC50) (MERTK): ++ (a ratio of between 10 and 100)
pIC50 (TYRO3): ≥ 7.00

Cc1cc(Cl)ccc1Nc1ncc2c(OC3CCNCC3)ncc([C@H]3CC[C@H](O)CC3)c2n1 [Compound 198]
pIC50 (MERTK): 6.00 to 7.00
Mer/Flt3 ratio (FLT3 IC50/Mer IC50) (MERTK): + (a ratio of >2.0 and <10)
pIC50 (TYRO3): ≥ 7.00

CCCC(C)Nc1ncc2c(=O)n([C@H]3CCN(C)C[C@@H]3F)cc([C@H]3CC[C@H](O)CC3)c2n1 (stereo partly drawn) [Compound 199]
pIC50 (MERTK): ≥ 7.00
Mer/Flt3 ratio (FLT3 IC50/Mer IC50) (MERTK): +++ (a ratio of >100)
pIC50 (TYRO3): ≥ 7.00

CCCC(C)Nc1ncc2c(=O)n([C@@H]3CCCN(C)C3)cc([C@H]3CC[C@H](O)CC3)c2n1 (stereo partly drawn) [Compound 200]
pIC50 (MERTK): ≥ 7.00
Mer/Flt3 ratio (FLT3 IC50/Mer IC50) (MERTK): +++ (a ratio of >100)
pIC50 (TYRO3): ≥ 7.00

CCCC(C)Nc1ncc2c(=O)n(C3CCN(C4COC4)CC3)cc([C@H]3CC[C@H](O)CC3)c2n1 (stereo partly drawn) [Compound 201]
pIC50 (MERTK): 6.00 to 7.00
Mer/Flt3 ratio (FLT3 IC50/Mer IC50) (MERTK): +++ (a ratio of >100)
pIC50 (TYRO3): ≥ 7.00

CC(Nc1ncc2c(OC3CCNCC3)ncc([C@H]3CC[C@H](O)CC3)c2n1)c1ccncc1 (stereo partly drawn) [Compound 202]
pIC50 (MERTK): 6.00 to 7.00
Mer/Flt3 ratio (FLT3 IC50/Mer IC50) (MERTK): ++ (a ratio of between 10 and 100)
pIC50 (TYRO3): ≥ 7.00

CCCC(C)Nc1ncc2c(OC3CCNCC3)ncc([C@H]3CC[C@H](O)CC3)c2n1 (stereo partly drawn) [Compound 203]
pIC50 (MERTK): ≥ 7.00
Mer/Flt3 ratio (FLT3 IC50/Mer IC50) (MERTK): + (a ratio of >2.0 and <10)
pIC50 (TYRO3): ≥ 7.00

CCC[C@@H](C)Nc1ncc2c(OC3CCNCC3)ncc([C@H]3CC[C@@H](O)CC3)c2n1 [Compound 204]
pIC50 (MERTK): ≥ 7.00
Mer/Flt3 ratio (FLT3 IC50/Mer IC50) (MERTK): ++ (a ratio of between 10 and 100)
pIC50 (TYRO3): 6.00 to 7.00

O[C@H]1CC[C@H](c2cnc(OC3CCNCC3)c3cnc(Nc4cccc(Cl)c4)nc32)CC1 [Compound 205]
pIC50 (MERTK): ≥ 7.00
Mer/Flt3 ratio (FLT3 IC50/Mer IC50) (MERTK): ++ (a ratio of between 10 and 100)
pIC50 (TYRO3): ≥ 7.00

O[C@H]1CC[C@H](c2cnc(OC3CCNCC3)c3cnc(Nc4ccc(Cl)cc4)nc32)CC1 [Compound 206]
pIC50 (MERTK): ≥ 7.00
Mer/Flt3 ratio (FLT3 IC50/Mer IC50) (MERTK): + (a ratio of >2.0 and <10)
pIC50 (TYRO3): ≥ 7.00

CCc1cccc(Nc2ncc3c(OC4CCNCC4)ncc([C@H]4CC[C@H](O)CC4)c3n2)c1 [Compound 207]
pIC50 (MERTK): ≥ 7.00
Mer/Flt3 ratio (FLT3 IC50/Mer IC50) (MERTK): ++ (a ratio of between 10 and 100)
pIC50 (TYRO3): 6.00 to 7.00

CCC[C@@H](C)Nc1ncc2c(OC3CCN(C)CC3)ncc([C@H]3CC[C@H](O)CC3)c2n1 [Compound 208]
pIC50 (MERTK): ≥ 7.00
Mer/Flt3 ratio (FLT3 IC50/Mer IC50) (MERTK): +++ (a ratio of >100)
pIC50 (TYRO3): 6.00 to 7.00

Cc1ccc(Cl)cc1Nc1ncc2c(OC3CCNCC3)ncc([C@H]3CC[C@H](O)CC3)c2n1 [Compound 209]
pIC50 (MERTK): 6.00 to 7.00
Mer/Flt3 ratio (FLT3 IC50/Mer IC50) (MERTK): NS (a ratio of ≤2.0)
pIC50 (TYRO3): ≥ 7.00

O[C@H]1CC[C@H](c2cnc(OC3CCNCC3)c3cnc(Nc4ccccc4)nc32)CC1 [Compound 210]
pIC50 (MERTK): ≥ 7.00
Mer/Flt3 ratio (FLT3 IC50/Mer IC50) (MERTK): + (a ratio of >2.0 and <10)
pIC50 (TYRO3): ≥ 7.00

O[C@H]1CC[C@H](c2cnc(OC3CCNCC3)c3cnc(NC4CCOCC4)nc32)CC1 [Compound 211]
pIC50 (MERTK): ≥ 7.00
Mer/Flt3 ratio (FLT3 IC50/Mer IC50) (MERTK): ++ (a ratio of between 10 and 100)
pIC50 (TYRO3): 6.00 to 7.00

CC(C)CNc1ncc2c(OC3CCNCC3)ncc([C@H]3CC[C@H](O)CC3)c2n1 [Compound 212]
pIC50 (MERTK): ≥ 7.00
Mer/Flt3 ratio (FLT3 IC50/Mer IC50) (MERTK): ++ (a ratio of between 10 and 100)
pIC50 (TYRO3): ≥ 7.00

O[C@H]1CC[C@H](c2cnc(OC3CCNCC3)c3cnc(N[C@@H]4CCOC4)nc32)CC1 [Compound 213]
pIC50 (MERTK): ≥ 7.00
Mer/Flt3 ratio (FLT3 IC50/Mer IC50) (MERTK): ++ (a ratio of between 10 and 100)
pIC50 (TYRO3): 6.00 to 7.00

CCCC(C)Nc1ncc2c(O[C@@H]3CCCN(C)C3)ncc([C@H]3CC[C@H](O)CC3)c2n1 (stereo partly drawn) [Compound 214]
pIC50 (MERTK): ≥ 7.00
Mer/Flt3 ratio (FLT3 IC50/Mer IC50) (MERTK): ++ (a ratio of between 10 and 100)
pIC50 (TYRO3): ≥ 7.00

CCOc1ncc(C2CCN(C)CC2)c2nc(N[C@@H](C)CC)ncc12 [Compound 215]
pIC50 (MERTK): 6.00 to 7.00
Mer/Flt3 ratio (FLT3 IC50/Mer IC50) (MERTK): ++ (a ratio of between 10 and 100)
pIC50 (TYRO3): ≥ 7.00
